According to ChEMBL document CHEMBL1159251, “A new polyether acid from a cold water marine sponge, a Phakellia species” (J Nat Prod, 1995):
In brackets after ≈: the same amount, converted by molar mass. Activity calls are given as the source filed them. The rule behind the calls is not given here.

Legend:
[1] = Cytotoxicity against african green monkey CV1 cells assessed as zone of diameter at 0.1 ug/ml; assay type: cell-based; settings: chlorocebus aethiops, cv-1
L1210 = assay: Cytotoxicity against mouse L1210 cells; assay type: cell-based
Human alphaherpesvirus 1 [2] = assay: Antiviral activity against HSV1 in african green monkey CV1 cells at 0.01 ug/ml by plaque reduction method; assay type: functional, organism-based; settings: CV-1
[3] = Cytotoxicity against african green monkey CV1 cells assessed as zone of diameter at 0.01 ug/ml; assay type: cell-based; settings: chlorocebus aethiops, cv-1
[4] = Cytotoxicity against BHK cells; assay type: cell-based, Mesocricetus auratus; settings: hamster
[5] = test system: Vesicular stomatitis virus; assay: Antiviral activity against VSV in BHK cells at 0.01 ug/ml by plaque reduction method; assay type: functional, organism-based
Human alphaherpesvirus 1 [6] = assay: Antiviral activity against HSV1 in african green monkey CV1 cells at 1 ug/ml by plaque reduction method; assay type: functional, organism-based; settings: CV-1
Human alphaherpesvirus 1 [7] = assay: Antiviral activity against HSV1 in african green monkey CV1 cells at 0.1 ug/ml by plaque reduction method; assay type: functional, organism-based; settings: CV-1

C=C1[C@@H](O)[C@@H]2O[C@]3(CC[C@H](CC[C@@H](C)[C@@H]4CC(C)=C[C@@]5(O[C@H](C[C@@](C)(O)C(=O)O)CC[C@H]5O)O4)O3)CC[C@H]2O[C@@H]1[C@@H](O)C[C@H](C)[C@H]1O[C@@]2(CC[C@H]1C)OCCC[C@H]2C
inhibition zone (IZ) [1]: 0 mm
IC50 (L1210): 3 ng/mL (≈ 3.65 nM)
Activity (Human alphaherpesvirus 1 [2]): inactive
inhibition zone (IZ) [3]: 0 mm
Activity [4]: Toxic
Activity [5]: Active

C=C1[C@@H](O)[C@@H]2O[C@]3(CC[C@H](/C=C/[C@@H](C)[C@@H]4CC(C)=C[C@@]5(O[C@H](C[C@@](C)(O)C(=O)O)CC[C@H]5O)O4)O3)CC[C@H]2O[C@@H]1[C@@H](O)C[C@H](C)[C@H]1O[C@@]2(CC[C@H]1C)OCCC[C@H]2C [DINOPHYSISTOXIN 1]
Activity (Human alphaherpesvirus 1 [6]): Active
Activity (Human alphaherpesvirus 1 [7]): Active
Activity [1]: Toxic
IC50 (L1210): 2 ng/mL (≈ 2.44 nM)
Activity (Human alphaherpesvirus 1 [2]): inactive
inhibition zone (IZ) [3]: 0 mm
Activity [4]: Toxic

C=C1[C@@H](O)[C@@H]2O[C@]3(CC[C@H](/C=C/[C@@H](C)[C@@H]4CC(C)=C[C@@]5(O[C@H](C[C@@](C)(O)C(=O)O)CC[C@H]5O)O4)O3)CC[C@H]2O[C@@H]1[C@@H](O)C[C@H](C)[C@H]1O[C@@]2(CCCCO2)CC[C@H]1C [OKADAIC ACID]
inhibition zone (IZ) [1]: 22 mm
IC50 (L1210): 5 ng/mL (≈ 6.21 nM)
inhibition zone (IZ) [3]: 0 mm
